According to article PMC6859963, “Fragment screening for a protein-protein interaction inhibitor to WDR5” (Structural Dynamics, 2019):
Counter-ions that a name gives are not always drawn.

Legend:
[1] = molecular target: T1, WDR5 (Homo sapiens, UniProt P61964); assay: SPR binding of compounds to captured biotinylated WDR5, 1:1 steady-state affinity fit; settings: for Kd: SPR; for LE (ligand efficiency): from SPR KD
T1 construct: hexahistidine-SUMO (N, cleaved yes); made in house; host or cells: E. coli BL21-CodonPlus-RIL
Protocol: SPR assay of small molecule binding used minimally biotinylated WDR5^23–334 protein captured on streptavidin-coated SPR chips. WDR5 (1 eq.) was mixed with freshly water-dissolved EZ-link Sulfo-NHS-LC-LC-biotin (0.8 eq., Thermofisher Scientific). The reaction mixture was incubated on ice for 2 h; unreacted biotin reagent was then removed from the mixture using size-exclusion chromatography on a Superdex 75 (10/300) column equilibrated in storage buffer (10 mM HEPES, 150 mM NaCl, 5 mM DTT).
(§1) SPR experiments were performed using a Biacore T200 or S200 biosensor with a CM5 chip (GE Healthcare). Streptavidin was coupled to the chip surface at 310 K in HBS-P+ running buffer (10 mM HEPES, pH 7.4, 150 mM NaCl, 0.05%[v/v] Tween-20) after a 10 min activation with a 1:1 mixture of NHS/EDC (N-hydroxysuccinimide/N-ethyl-N′-(3-[…])carbodiimide). Protein was diluted to 100 μg·ml^−1 at pH 4.5 (10 mM sodium acetate, 0.005%[v/v] Tween-20) and injected for 7 min. The surface was then blocked with 1 M ethanolamine, pH 8.0, for 7 min. Immobilization levels were typically 7000–13 000 RU, but as low as 1800 RU for compounds 55, 59, and Ac-ARV-NH2, where fitting uses a 1:1 kinetic model to determine dissociation rates. WDR5 capture was then performed over the streptavidin-coupled flow-cells at 293 K in HBS-P+ buffer with the addition of 5 mM DTT. Capture levels for fragment screening were ∼19 000 RU, while capture levels for subsequent testing were ∼9000 RU. The N-terminal domain of heat-shock protein 90 (Hsp90, UnprotKB P08238, residues 1–382) was captured (∼11 000 RU) during screening to provide an unrelated negative control surface, activity being monitored with intermittent ADP (adenosine diphosphate) injections. Biotin was subsequently injected over WDR5- and negative control protein-bound flow-cells to block remaining unbound streptavidin. SPR experiments were performed at 298 K in SPR running buffer containing 50 mM HEPES, 150 mM NaCl, 5 mM DTT, and 0.05%[v/v] Tween-20, 2%[v/v] DMSO. Initial fragments were screened at 100 μM. When performing dose-response testing, analytes were serially diluted (2- or 3-fold), injected for 30 s contact time, and allowed to dissociate for 30 s. The flow rate was 60 μl·min^−1. Binding sensorgrams were processed, solvent-corrected, and double-referenced using Scrubber software (BioLogic Software, Australia). […] Therefore, to determine binding affinities (KD values), responses at equilibrium for each analyte were fitted to a 1:1 steady-state affinity model available within Scrubber.

[2] = molecular target: T1, WDR5; assay: SPR 1:1 kinetic model to determine dissociation rates from WDR5; format: binding; settings: for koff: read-out: kd (dissociation rate); for binding to WDR5: samples were mixtures of diastereomers
Source text: Compound 1 was identified as a highly ligand efficient hit that binds the phenylalanine clamp of the WIN site, approximating the arginine headgroup of the WIN motif. […] Two peptidomimetics, with 1 replacing the arginine, were synthesized. Compounds 55 and 59 are analogs of the Ac-ARV-NH2 and Ac-α-MeAla-RV-NH2 tripeptides,[21] respectively (Fig. 5). […] The hydroxymethyl imidazole thus appears to be a good replacement for the charged arginine residue in this context, and 59 may serve as a tool compound with more sensible physicochemical parameters than previous potent tripeptides. […] Binding constants of compounds 55 and 59 are thus difficult to derive. Instead, the (concentration independent) dissociation rates have been reported for 55 and 59 (kd = 0.067 s^−1 and 0.025 s^−1, respectively) to provide a more meaningful comparison to the analogous tripeptide Ac-ARV-NH2 (kd = 0.054 s^−1). […] However, if multiple diastereomers of 55/59 were indeed binding WDR5, it would not detract from the conclusion that hydroxymethyl imidazole-peptidomimetics have potential as WDR5 WIN-site inhibitors.
as §1

[3] = Table III, ether-derivatized 2, mean ± SE (SE not reported where n = 1)
[4] = Table IV, derivatives of 2, mean ± SE (SE not reported where n = 1)
[5] = Table II, fragment core, mean ± SE (SE not reported where n = 1)
[6] = 1:1 kinetic model, concentration independent, 55 and 59 tested as mixtures of diastereomers

In the case of Cc1nc(COC(C)C)c[nH]1 [Compound 9, 4-(isopropoxymethyl)-2-methyl-1H-imidazole], the Kd [1, 3] is reported as > 3000 µM.

With COC(=O)N(CCCCc1nc(CO)c[nH]1)Cc1ccc(=O)[nH]c1.O=C(O)C(F)(F)F [Compound 45, Methyl (4-(4-(hydroxymethyl)-1H-imidazol-2-yl)butyl)((6-oxo-1,6-dihydropyridin-3-yl)methyl)carbamate trifluoroacetic acid] the Kd [1, 4] was 98.6 ± 0.6 µM and the “fold weaker binding than 37” value ([1]; ratio of SPR KD values) was 20 fold.

CNC(=O)CCc1nc(CO)c[nH]1 [Compound 23, 3-(4-(hydroxymethyl)-1H-imidazol-2-yl)-N-methylpropanamide] was tested, and the Kd [1, 4] was 890 µM.

Cc1cc(CO)n[nH]1 [Compound 4] was tested, and the Kd [1, 5] was > 3000 µM.

O=C(Cc1ccccc1)NCCCCc1ncc(CO)[nH]1 [Compound 31, N-(4-(5-(hydroxymethyl)-1H-imidazol-2-yl)butyl)-2-phenylacetamide trifluoroacetic acid] showed a Kd [1, 4] of 25 ± 3 µM.

Molecule O=C(NCCCCc1ncc(CO)[nH]1)OCc1ccccc1 [Compound 35, Benzyl (4-(5-(hydroxymethyl)-1H-imidazol-2-yl)butyl)carbamate trifluoroacetic acid] has a Kd [1, 4] of 11 ± 1 µM.

For Cc1ncc[nH]1 [Compound 6, 2-methyl imidazole], the Kd [1, 5] was 2100 µM and the “LE (ligand efficiency)” value [1] was 0.60 kcal·mol^−1·heavy atom^−1.

OCc1c[nH]c(-c2ccccc2)n1 [Compound 13] was tested, and the Kd [1] was 5200 µM and the Kd [1, 4] was > 3000 µM.

With COC(CCc1nc(CO)c[nH]1)c1ccccc1 (stereo not shown) [Compound 17, (2-(3-methoxy-3-phenylpropyl)-1H-imidazol-4-yl)methanol] the Kd [1, 4] was 22 ± 6 µM and the “LE (ligand efficiency)” value [1] was 0.35 kcal·mol^−1·heavy atom^−1.

For CC(=O)NCCCCc1ncc(CO)[nH]1 [Compound 29, N-(4-(5-(hydroxymethyl)-1H-imidazol-2-yl)butyl)acetamide trifluoroacetic acid], the Kd [1, 4] was 200 ± 10 µM.

For O=C(NCCCCc1ncc(CO)[nH]1)c1ccccc1 [Compound 30, N-(4-(5-(hydroxymethyl)-1H-imidazol-2-yl)butyl)benzamide], the Kd [1, 4] was 12 ± 1 µM.

For COCc1c[nH]c(C)n1 [Compound 7], the Kd [1, 3] was > 3000 µM.

For CC(=O)NC(C)C(=O)NC(CCCc1nc(CO)c[nH]1)C(=O)NC(C(N)=O)C(C)C (stereo not shown) [Compound 55, 2-(2-acetamidopropanamido)-N-(1-amino-3-methyl-1-oxobutan-2-yl)-5-(4-(hydroxymethyl)-1H-imidazol-2-yl)pentanamide], the koff [2, 6] was 0.067 s⁻¹ and the “binding to WDR5” value [2] was “Binding was observed”.

With CCCCc1ncc(CO)[nH]1 [Compound 1, (2-butyl-1H-imidazol-5-yl)methanol] the Kd [1, 5] was 480 ± 30 µM and the “LE (ligand efficiency)” value [1] was 0.41 kcal·mol^−1·heavy atom^−1.

Work on OCc1c[nH]c(CCc2ccccc2)n1 [Compound 15, (2-phenethyl-1H-imidazol-4-yl)methanol] yielded a Kd [1, 4] of 300 ± 40 µM.

For OCc1ncc[nH]1 [Compound 5], the Kd [1, 5] was > 3000 µM.

With COC(=O)NCCCCc1ncc(CO)[nH]1.O=C(O)C(F)(F)F [Compound 32, Methyl (4-(5-(hydroxymethyl)-1H-imidazol-2-yl)butyl)carbamate trifluoroacetic acid] the Kd [1, 4] was 28.9 ± 0.5 µM and the “LE (ligand efficiency)” value [1] was 0.39 kcal·mol^−1·heavy atom^−1.

Work on Cc1nc(COCc2ccccc2)c[nH]1 [Compound 11, 4-((benzyloxy)methyl)-2-methyl-1H-imidazole] yielded a Kd [1, 3] of 950 µM.

In the case of OCc1c[nH]cn1 [Compound 3], the Kd [1] is reported as > 3000 µM and the potency estimated from few doses ([1]; Table II, estimated from single concentration (100 μM) screen, read-out: KD) is reported as > 3000 µM.

OCc1c[nH]c(Cc2ccccc2)n1 [Compound 14, (2-benzyl-1H-imidazol-4-yl)methanol] was tested, and the Kd [1, 4] was 530 µM.

COC(=O)N(CCCCc1ncc(CO)[nH]1)Cc1ccccc1 [Compound 37, Methyl benzyl(4-(5-(hydroxymethyl)-1H-imidazol-2-yl)butyl)carbamate trifluoroacetic acid] showed a Kd [1, 4] of 4.5 ± 0.3 µM.

CCOC(=O)CCc1nc(CO)c[nH]1 [Compound 24, ethyl 3-(4-(hydroxymethyl)-1H-imidazol-2-yl)propanoate] gave a Kd [1, 4] of 240 ± 10 µM.

COC(=O)N(CCCCc1nc(CO)c[nH]1)Cc1cc[nH]c(=O)c1 [Compound 47, Methyl (4-(4-(hydroxymethyl)-1H-imidazol-2-yl)butyl)((2-oxo-1,2-dihydropyridin-4-yl)methyl)carbamate hydrochloride] was tested, and the Kd [1, 4] was 24.2 ± 0.2 µM.

Cc1nc(CO)c[nH]1 [Compound 2, (2-methyl-imidazol-4-yl)methanol] was tested, and the Kd [1, 5] was 260 ± 20 µM, the Kd [1, 3] was 260 ± 20 µM and the “LE (ligand efficiency)” value [1] was 0.61 kcal·mol^−1·heavy atom^−1.

With CC(=O)NC(C)(C)C(=O)NC(CCCc1nc(CO)c[nH]1)C(=O)NC(C(N)=O)C(C)C (stereo not shown) [Compound 59, 2-(2-acetamido-2-methylpropanamido)-N-(1-amino-3-methyl-1-oxobutan-2-yl)-5-(4-(hydroxymethyl)-1H-imidazol-2-yl)pentanamide] the koff [2, 6] was 0.025 s⁻¹ and the “binding to WDR5” value [2] was “Binding was observed”.

Work on COC(=O)N(CCCCc1nc(CO)c[nH]1)CC1CCNCC1 [Compound 40, Methyl (4-(4-(hydroxymethyl)-1H-imidazol-2-yl)butyl)(piperidin-4-ylmethyl)carbamate bis trifluoroacetic acid] yielded a Kd [1, 4] of 19 ± 3 µM.

NCCCCc1ncc(CO)[nH]1 [Compound 28, (2-(4-aminobutyl)-1H-imidazol-5-yl)methanol bis trifluoroacetic acid] gave a Kd [1, 4] of 350 ± 40 µM.

With Ac-ARV-NH2 [reference compound] the “kd (dissociation rate)” value [2, 6] was 0.054 s⁻¹.

For OCc1c[nH]c(CCCc2ccccc2)n1 [Compound 16, (2-(3-phenylpropyl)-1H-imidazol-4-yl)methanol], the Kd [1, 4] was 140 ± 30 µM and the “LE (ligand efficiency)” value [1] was 0.33 kcal·mol^−1·heavy atom^−1.

In the case of Cc1nc(COCC(F)(F)F)c[nH]1 [Compound 10, 2-methyl-4-((2,2,2-trifluoroethoxy)methyl)-1H-imidazole], the Kd [1, 3] is reported as > 3000 µM.

CCCOCc1c[nH]c(C)n1 [Compound 8, 2-methyl-4-(propoxymethyl)-1H-imidazole] was tested, and the Kd [1, 3] was > 3000 µM.
